# Source: US20120042398A1, “COMPOSITIONS FOR LABELING AND IDENTIFYING AUTOPHAGOSOMES AND METHODS FOR MAKING AND USING THEM” (SAN DIEGO STATE UNIVERSITY (SDSU) FOUNDATION, priority 2008, published 2012)
# Experiments:
# [1] = test system: autophagic vesicles (AV) in fat body tissue; experiment: Staining of fresh Drosophila larval fat body tissue (AV labeling); assay type: cell-based; conditions: 10 μM dye, 10 min
# Experimental: Staining of Drosophila Tissues. To perform a rapid first-pass examination of the compounds ability to stain AV we examined fat body tissues from wandering 3rd instar Drosophila larvae. 1 mM DMSO stock solutions were prepared for each compound and stored at −20° C. Fat body tissue from wild type fly larvae were dissected from the surrounding cuticle and organs, and placed in 1 ml iced PBS solution. Tissues were immediately stained for 10 min, in a final 10 μM concentration for each dye. Samples were rinsed twice with 1×PBS, mounted with VECTASHIELD™ (Vector Laboratories, Inc, Burlingame, Calif.) and immediately imaged using a scanning confocal fluorescent microscope (Leica, FITC channel). As a positive control, fly tissues (3rd instar) were also stained with BODIPY-TexasRed-cadaverine (Invitrogen, red).
# HL-1 cells = experiment: High-throughput cadaverine plate-reader assay of autophagy (ALEXAFLUOR488-cadaverine fluorescence); assay type: cell-based, Mouse; conditions: FIG. 1
# Experimental: For 24 Well Plates: • Plate 75,000 cells per well • Wait for cells to achieve approximately 80% confluence (approximately 1 day) • Treat cells (3 h 30 min starvation, 3 mL of medium) • Rinse cells with PBS (1 ml) • Incubate cells with probe for 10 minutes at 37° C. • Wash cells four times with PBS (1 mL) • Lyse cells by incubating in 10 mM Tris-Cl pH 8 containing 0.1% Triton X-100 for 20 minutes (500 uL) • Measure fluorescence in plate reader • Add ethidium bromide to a final concentration of 0.2 mM and measure fluorescence (exc=530 nm; em=590 nm) • Normalize results to the number of cells (ethidium bromide reading)
# Probes: • ALEXAFLUOR488™ cadaverine (A30676, Invitrogen, Carlsbad, Calif.) • Final concentration 25 uM, exc=493 nm; em=516 nm. • BODIPY TR™ cadaverine (D6251, Invitrogen, Carlsbad, Calif.) • Final concentration 125 nM, exc=588 nm; em=616 nm.
# [2] = test system: autophagic vesicles in Atg1-/- fat body tissue; experiment: FITC-TG / LYSOTRACKER staining of Atg1-/- mutant fat body tissue; assay type: cell-based, Drosophila; conditions: starvation and hormone-dependent induction
# Experimental: These studies indicates the FITC-dyes highlight a population of vesicles that are distinct from LYSOTRACKER™ and could be used to study the early in vivo formation, maturation and fusion events of AV within cells. To further confirm the specificity of the FITC-TG AV staining, fat body tissue was prepared from Atg1−/− larvae and compared with wild type controls. Signaling of the Atg1 protein kinase is essential for pathway induction and AV formation, see e.g., (21, 57). In Drosophila loss-of-function mutations in this gene result in late pupal lethality but have a minor impairment on early development, thus providing sufficient material for imaging studies. […] This staining pattern is consistent with lysosomes maturing from the endosomal pathway but AV failing to be formed under normal physiological conditions. FIG. 8 illustrates images of stained tissues from: Fed (left column images), fasted (middle column images) and hormone-induced (“3rd instar” right column images) autophagy profiles in wildtype (upper row images) and Atg1−/− mutant (lower row images) cells. Fat body tissue from larvae that were fed, fasted or undergoing hormone-induced autophagy were collected and stained with LYSOTRACKER™ (red) and the exemplary FITC-TG (green). […] While LYSOTRACKER™ puncta are detected (red) in these Atg1^−/− mutant tissues, the exemplary FITC-TG dye fails to stain autophagosomes or autolysosomes.
# [3] = test system: mCherry-LC3 puncta (autophagosomes) in heart; experiment: MDC labeling of cardiac tissue in mCherry-LC3 mice; assay type: in vivo; conditions: MDC 1.5 mg/kg i.p. 1 hr before sacrifice, heart sections
# Experimental: To examine its labeling profile in cardiac tissues, mCherry-LC3 mice were injected with MDC (1.5 mg/kg i.p.) 1 hr before being sacrificed, e.g., see Iwai-Kanai (2008) supra, Yitzhaki (2009) Basic Res. Cardiol. 104:157-167. Hearts were collected and frozen tissues sections prepared for imaging. Under conditions where autophagy is activated and mCherry-LC3 puncta formed, MDC-labeled structures were similarly up regulated, see FIG. 4, and see e.g. Iwai-Kanai (2008) supra. MDC labeled a subset of mCherry-LC3-positive structures, presumably fused autolysosome vesicles.
# FIG. 4 illustrates three images, including mCherry and MDC labeling of vesicles. mCherry-LC3 expressing mice were treated with rapamycin and hearts prepared for fluorescent imaging. […] The right image of FIG. 4 is a merge of the mCherry-LC3 and MDC images.
# [4] = Fluorophore properties (pKa, pH stability, photostability, storage stability); assay type: physicochemical; conditions: for photostability / photobleaching: normal fluorescence exposure
# autophagic vesicles (AV) = experiment: MDC staining of AV in cell or tissue preparations; assay type: cell-based
# Source text: Initial synthesis of autophagic specific dyes of this invention was based on MDC. […] In alternative embodiments, dyes used in compositions of this invention are vesicle selective, have multiple fluorescent excitation/emission spectra and can be used for several imaging applications. Thus, the new dyes of this invention will greatly benefit autophagy research.
# [5] = cited from earlier work
# [6] = test system: autophagosomes in heart tissue; experiment: Heart perfusion with BODIPY-TR-cadaverine, dye incorporation into autophagosomes read in plate reader; conditions: perfused hearts, FIG. 2
# Experimental: 1) Mince 1-5 mm^3 tissue sample in 1-2 mL homogenization buffer in 35 mm dish 2) Polytron at ½ speed, 5 sec, on ice in 15 mL round bottom polypropylene tube 3) Spin out nuclei and heavy membranes @ 1000 g, 5 min, 4° C. in 15 mL Falcon tube 4) Move post-nuclear supernatant into 1.5 mL Eppendorf tube 5) Add MDC (or Cadaverine 488) to final concentration of 25 μM 6) Incubate on ice 10 min protected from light 7) Spin sample 20,000×g, 20 min, 4° C. 8) Aspirate supernatant and rinse off pellet with 1 mL cold resuspension buffer 2×'s 9) Resuspend pellet in 350 μL resuspension buffer until mixed evenly 10) Add 100 μL per well in triplicate to black 96-well plate 11) Read on Fluorescence plate reader @ excitation/emission 495 nm/519 nm 12) Use remaining sample to run Bradford assay to quantify protein concentration.
# The hearts were perfused with BODIPY-TR™-cadaverine followed by washout, then homogenized and fluorescence read in plate reader. […] FIG. 2 right image is a graph illustrating quantitation of dye incorporation into autophagosomes, with the left column graphically quantitating the upper left image's fluorescence and the right column graphically quantitating the lower left image's (the Tat-Atg5(K130R)-inhibited) fluorescence.
compound,measurement,setting,value
"Cl.NCCCCCNC(=O)COc1ccc(C2=[N+]3C(=Cc4ccc(-c5cccs5)n4[B-]3(F)F)C=C2)cc1 [BODIPY-cadaverine, 5-(((4-(4,4-difluoro-5-(2-thienyl)-4-bora-3a,4a-diaza-s-indacene-3-yl)phenoxy)acetyl)amino)pentylamine, hydrochloride]",staining of intracellular vesicles / cytoplasmic puncta in fresh tissue,[1],robust staining pattern
CO/C1=C\C(C)=C\[C@@H](C)[C@@H](O)[C@@H](C)C/C(C)=C/C=C/[C@H](OC)[C@@H]([C@@H](C)[C@@H](O)[C@H](C)[C@@]2(O)C[C@@H](O)[C@H](C)[C@@H](C(C)C)O2)OC1=O [Bafilomycin A1],effect on starvation-increased autophagy (relative ALEXAFLUOR488-cadaverine fluorescence normalized to cell number),HL-1 cells,partially blocked
CN(C)CCNC(=O)CCc1ccc2n1[B-](F)(F)[N+]1=C(c3ccc[nH]3)C=CC1=C2 [LYSOTRACKER™],vesicle staining in Atg1-/- flies,[2],some LYSOTRACKER™ positive staining
"CN(C)c1cccc2c(S(=O)(=O)NCCCCCN)cccc12 [MDC, monodansylcadaverine]",co-localization of MDC labeling with mCherry-LC3 puncta,[3],excellent co-localization
same,stability during storage,[4],stability issues during storage
same,photostability / photobleaching,[4],significant photobleaching
same,usability on fixed samples,autophagic vesicles (AV),cannot be used on fixed samples
"O=C1OC2(c3cc(F)c(O)cc3Oc3cc(O)c(F)cc32)c2ccccc21 [Oregon Green 488, Difluoro-fluorescein]",pKa,[5],4.7
same,photostability / photobleaching,[4],excellent photostability
Nc1ccc(S(=O)(=O)Nc2ccnn2-c2ccccc2)cc1 [Sulfaphenazole],effect on autophagy (BODIPY-TR-cadaverine incorporation into autophagosomes),[6],potent inducer of autophagy
CCN(CC)CCCC(C)Nc1ccnc2cc(Cl)ccc12 (centres unmarked) [chloroquine],effect on starvation-increased autophagy (relative ALEXAFLUOR488-cadaverine fluorescence normalized to cell number),HL-1 cells,partially blocked
